In patent US12637428B2, “Isoquinoline derivatives as SIK2 inhibitors” (Cancer Research Technology Limited, priority 2019, dated 2026):

What was measured:
Assay type in all cases: biochemical
SIK2 = molecular target: T1, SIK2 (Homo sapiens, UniProt Q9H0K1); test: SIK2 kinase assay, IMAP fluorescence polarization; conditions: 50 or 100 μM ATP, average
T1 construct: purchased Life Technologies
Protocol: (§1) SIK2, SIK1, SIK3, Abl, Src and EPHA2 Kinase Assays
(§2) SIK2, SIK1, SIK3, Abl, Src and EPHA2 assays were performed using an IMAP fluorescence polarization assay format (Molecular Devices Inc.). 0.6-13 nM of each kinase (Life Technologies) was incubated for 60 min at room temperature with 100 nM of either FAM-Abltide, FAM-Srctide or FAM-HDAC protein derived peptide (synthesized by Alta Biosciences, Birmingham UK). Assays were carried out in the presence of 50 or 100 μM ATP in either 20 mM Tris buffer (pH 7.2) containing 4 mM MgCl2, 0.2% BSA and 2 mM DTT (SIK2, SIK1, SIK3, Abl, Src); or 20 mM Tris buffer (pH 8.5) containing 20 mM MgCl2, 0.5% BSA, 0.2% Triton and 5 mM DTT (EPHA2). Typically, dose response analyses were performed over concentration ranges from 0.00005-1 μM. Reactions were stopped by adding 2 assay volumes of 0.25% (v/v) IMAP binding reagent in either an 85:15 ratio (SIK2, SIK1, SIK3, Abl, EPHA2) or 30:70 ratio (Src) of IMAP binding buffers A and B (Molecular Devices). After incubation to allow the detection reagents to bind to the phosphorylated peptide, fluorescence polarization was measured on a Tecan Infinite plate reader at excitation (470 nm) and emission (530 nm) wavelengths. Inhibition was calculated using no inhibitor and no enzyme controls as 0 and 100% inhibition, respectively.
(§3) Table 3 provides details of the inhibitory constant (nM) of compounds of the invention at SIK1, SIK2 and SIK3 and other kinases.

SIK1 = molecular target: T2, SIK1 (Homo sapiens, UniProt P57059); test: SIK1 kinase assay, IMAP fluorescence polarization; conditions: 50 or 100 μM ATP, average
T2 construct: purchased Life Technologies
T2 sequence (P57059 whole entry): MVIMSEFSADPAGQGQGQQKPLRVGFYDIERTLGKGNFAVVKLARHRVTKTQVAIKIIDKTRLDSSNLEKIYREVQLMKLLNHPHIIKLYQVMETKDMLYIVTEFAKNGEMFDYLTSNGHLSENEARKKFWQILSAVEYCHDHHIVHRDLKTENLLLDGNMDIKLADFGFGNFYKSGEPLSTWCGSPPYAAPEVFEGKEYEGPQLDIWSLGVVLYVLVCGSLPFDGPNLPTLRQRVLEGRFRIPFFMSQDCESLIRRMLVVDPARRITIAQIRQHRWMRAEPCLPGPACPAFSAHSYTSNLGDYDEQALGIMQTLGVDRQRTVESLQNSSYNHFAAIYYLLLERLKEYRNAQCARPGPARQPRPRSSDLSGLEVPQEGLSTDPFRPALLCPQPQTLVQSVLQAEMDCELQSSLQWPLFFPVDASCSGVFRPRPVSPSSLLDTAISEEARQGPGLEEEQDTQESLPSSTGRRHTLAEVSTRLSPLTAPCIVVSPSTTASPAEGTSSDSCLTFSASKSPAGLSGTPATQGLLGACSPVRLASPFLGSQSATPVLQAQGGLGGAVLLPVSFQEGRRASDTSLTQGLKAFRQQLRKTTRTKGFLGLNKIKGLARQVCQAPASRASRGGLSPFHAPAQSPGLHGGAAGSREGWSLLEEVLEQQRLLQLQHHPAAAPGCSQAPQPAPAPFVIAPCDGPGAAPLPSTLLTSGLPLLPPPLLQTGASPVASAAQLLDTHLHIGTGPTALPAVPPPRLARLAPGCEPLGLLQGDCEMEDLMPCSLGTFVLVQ
Protocol: as §1, §2, §3

SIK3 = molecular target: T3, SIK3 (Homo sapiens, UniProt Q9Y2K2); test: SIK3 kinase assay, IMAP fluorescence polarization; conditions: 50 or 100 μM ATP, average
T3 construct: purchased Life Technologies
T3 sequence (Q9Y2K2 whole entry): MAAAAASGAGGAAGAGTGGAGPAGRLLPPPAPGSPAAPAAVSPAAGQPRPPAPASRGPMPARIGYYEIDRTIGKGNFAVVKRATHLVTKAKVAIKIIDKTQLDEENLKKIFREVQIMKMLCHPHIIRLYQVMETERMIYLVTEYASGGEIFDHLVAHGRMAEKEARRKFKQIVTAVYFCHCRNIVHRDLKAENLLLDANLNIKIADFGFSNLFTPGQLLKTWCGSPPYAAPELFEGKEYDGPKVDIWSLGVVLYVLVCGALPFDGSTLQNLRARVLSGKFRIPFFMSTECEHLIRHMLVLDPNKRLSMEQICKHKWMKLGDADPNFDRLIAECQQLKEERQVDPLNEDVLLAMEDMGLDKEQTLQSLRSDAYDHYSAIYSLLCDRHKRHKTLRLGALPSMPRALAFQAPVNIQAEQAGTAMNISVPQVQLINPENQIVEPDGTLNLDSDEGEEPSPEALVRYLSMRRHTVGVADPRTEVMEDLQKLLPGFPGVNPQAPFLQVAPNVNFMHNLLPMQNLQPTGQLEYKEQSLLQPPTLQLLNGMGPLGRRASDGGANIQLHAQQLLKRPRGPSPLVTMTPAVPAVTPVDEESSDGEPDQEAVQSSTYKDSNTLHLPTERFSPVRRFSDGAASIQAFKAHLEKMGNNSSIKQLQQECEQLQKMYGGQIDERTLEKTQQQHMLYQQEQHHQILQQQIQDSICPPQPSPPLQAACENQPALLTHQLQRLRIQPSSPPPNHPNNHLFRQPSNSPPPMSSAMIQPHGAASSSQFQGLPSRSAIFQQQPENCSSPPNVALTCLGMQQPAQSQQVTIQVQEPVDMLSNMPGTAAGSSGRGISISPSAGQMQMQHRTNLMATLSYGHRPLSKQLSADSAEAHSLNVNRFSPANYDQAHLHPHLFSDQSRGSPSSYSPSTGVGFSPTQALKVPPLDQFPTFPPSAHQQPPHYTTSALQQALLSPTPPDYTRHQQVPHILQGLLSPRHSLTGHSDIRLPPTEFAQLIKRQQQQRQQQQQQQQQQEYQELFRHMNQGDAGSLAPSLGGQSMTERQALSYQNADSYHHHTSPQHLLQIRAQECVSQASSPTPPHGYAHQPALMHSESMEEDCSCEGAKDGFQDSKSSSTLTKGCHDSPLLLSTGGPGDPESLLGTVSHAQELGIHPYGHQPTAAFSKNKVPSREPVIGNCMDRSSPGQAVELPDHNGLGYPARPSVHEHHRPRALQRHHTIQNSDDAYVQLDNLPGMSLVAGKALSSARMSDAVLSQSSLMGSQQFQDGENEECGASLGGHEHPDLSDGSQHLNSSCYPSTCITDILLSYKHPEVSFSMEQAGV
Protocol: as §1, §2, §3

Abl = molecular target: T4, Abl (Homo sapiens, UniProt P00519); test: Abl kinase assay, IMAP fluorescence polarization; conditions: 50 or 100 μM ATP, average
T4 construct: purchased Life Technologies
T4 sequence (P00519 whole entry): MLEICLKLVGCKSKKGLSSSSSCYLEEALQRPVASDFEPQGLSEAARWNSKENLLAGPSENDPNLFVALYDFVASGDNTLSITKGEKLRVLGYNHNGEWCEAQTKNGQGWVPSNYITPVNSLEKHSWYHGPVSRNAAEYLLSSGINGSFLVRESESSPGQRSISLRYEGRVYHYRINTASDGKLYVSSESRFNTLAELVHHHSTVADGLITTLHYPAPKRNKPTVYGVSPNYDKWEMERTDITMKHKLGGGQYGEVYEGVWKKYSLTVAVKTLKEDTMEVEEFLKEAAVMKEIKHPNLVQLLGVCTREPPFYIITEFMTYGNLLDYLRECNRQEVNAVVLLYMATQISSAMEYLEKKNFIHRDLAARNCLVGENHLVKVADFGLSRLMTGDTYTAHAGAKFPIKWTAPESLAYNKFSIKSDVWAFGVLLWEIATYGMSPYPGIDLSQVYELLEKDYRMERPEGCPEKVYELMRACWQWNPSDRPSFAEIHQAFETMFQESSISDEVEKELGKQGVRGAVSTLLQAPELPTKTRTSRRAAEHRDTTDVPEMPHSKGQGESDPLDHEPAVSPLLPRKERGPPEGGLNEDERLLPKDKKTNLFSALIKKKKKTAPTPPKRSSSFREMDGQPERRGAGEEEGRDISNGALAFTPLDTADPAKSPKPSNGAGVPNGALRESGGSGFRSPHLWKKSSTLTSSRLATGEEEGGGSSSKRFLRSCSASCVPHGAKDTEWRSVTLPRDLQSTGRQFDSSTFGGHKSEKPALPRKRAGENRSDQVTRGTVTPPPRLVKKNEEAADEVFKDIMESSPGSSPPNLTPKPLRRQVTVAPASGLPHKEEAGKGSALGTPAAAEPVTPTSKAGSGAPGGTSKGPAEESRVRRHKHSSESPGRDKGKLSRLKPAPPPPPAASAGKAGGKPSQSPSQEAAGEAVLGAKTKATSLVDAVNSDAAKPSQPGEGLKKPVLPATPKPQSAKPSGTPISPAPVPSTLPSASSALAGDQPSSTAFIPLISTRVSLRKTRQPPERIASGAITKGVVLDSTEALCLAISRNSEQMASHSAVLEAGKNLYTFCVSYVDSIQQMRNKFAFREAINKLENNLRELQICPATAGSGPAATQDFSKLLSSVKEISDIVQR
Protocol: as §1, §2, §3

Src = molecular target: T5, Src (Homo sapiens, UniProt P12931); test: Src kinase assay, IMAP fluorescence polarization; conditions: 50 or 100 μM ATP, average
T5 construct: purchased Life Technologies
Protocol: as §1, §2, §3

EPHA2 = molecular target: T6, EPHA2 (Homo sapiens, UniProt P29317); test: EPHA2 kinase assay, IMAP fluorescence polarization; conditions: 50 or 100 μM ATP, Tris pH 8.5, average
T6 construct: purchased Life Technologies
T6 sequence (P29317 24-976): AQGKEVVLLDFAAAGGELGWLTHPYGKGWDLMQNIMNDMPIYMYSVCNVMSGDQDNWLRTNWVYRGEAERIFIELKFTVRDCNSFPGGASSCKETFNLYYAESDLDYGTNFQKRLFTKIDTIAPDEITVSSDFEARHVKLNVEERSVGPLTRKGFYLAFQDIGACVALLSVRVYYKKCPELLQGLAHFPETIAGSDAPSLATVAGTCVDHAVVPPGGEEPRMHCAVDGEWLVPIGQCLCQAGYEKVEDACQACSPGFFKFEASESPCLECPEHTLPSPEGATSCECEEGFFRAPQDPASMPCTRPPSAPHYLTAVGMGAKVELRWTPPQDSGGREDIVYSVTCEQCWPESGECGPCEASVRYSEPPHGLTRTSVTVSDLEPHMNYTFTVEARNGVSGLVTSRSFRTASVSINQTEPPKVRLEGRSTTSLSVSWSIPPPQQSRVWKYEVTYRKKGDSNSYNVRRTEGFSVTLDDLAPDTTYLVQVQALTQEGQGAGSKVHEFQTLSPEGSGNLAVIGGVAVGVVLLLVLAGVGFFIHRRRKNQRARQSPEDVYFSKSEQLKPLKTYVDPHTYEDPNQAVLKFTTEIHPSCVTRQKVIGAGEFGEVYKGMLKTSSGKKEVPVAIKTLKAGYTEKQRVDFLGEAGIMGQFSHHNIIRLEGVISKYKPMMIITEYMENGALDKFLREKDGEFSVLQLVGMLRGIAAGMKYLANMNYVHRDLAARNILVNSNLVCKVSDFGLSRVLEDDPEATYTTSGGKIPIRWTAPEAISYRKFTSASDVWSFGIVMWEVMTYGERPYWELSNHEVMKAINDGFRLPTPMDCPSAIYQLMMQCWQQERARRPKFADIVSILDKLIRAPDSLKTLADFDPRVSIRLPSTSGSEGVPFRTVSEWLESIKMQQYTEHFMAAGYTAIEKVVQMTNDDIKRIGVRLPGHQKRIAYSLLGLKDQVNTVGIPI
Protocol: as §1, §2, §3

T1 sequence (Q9H0K1 whole entry): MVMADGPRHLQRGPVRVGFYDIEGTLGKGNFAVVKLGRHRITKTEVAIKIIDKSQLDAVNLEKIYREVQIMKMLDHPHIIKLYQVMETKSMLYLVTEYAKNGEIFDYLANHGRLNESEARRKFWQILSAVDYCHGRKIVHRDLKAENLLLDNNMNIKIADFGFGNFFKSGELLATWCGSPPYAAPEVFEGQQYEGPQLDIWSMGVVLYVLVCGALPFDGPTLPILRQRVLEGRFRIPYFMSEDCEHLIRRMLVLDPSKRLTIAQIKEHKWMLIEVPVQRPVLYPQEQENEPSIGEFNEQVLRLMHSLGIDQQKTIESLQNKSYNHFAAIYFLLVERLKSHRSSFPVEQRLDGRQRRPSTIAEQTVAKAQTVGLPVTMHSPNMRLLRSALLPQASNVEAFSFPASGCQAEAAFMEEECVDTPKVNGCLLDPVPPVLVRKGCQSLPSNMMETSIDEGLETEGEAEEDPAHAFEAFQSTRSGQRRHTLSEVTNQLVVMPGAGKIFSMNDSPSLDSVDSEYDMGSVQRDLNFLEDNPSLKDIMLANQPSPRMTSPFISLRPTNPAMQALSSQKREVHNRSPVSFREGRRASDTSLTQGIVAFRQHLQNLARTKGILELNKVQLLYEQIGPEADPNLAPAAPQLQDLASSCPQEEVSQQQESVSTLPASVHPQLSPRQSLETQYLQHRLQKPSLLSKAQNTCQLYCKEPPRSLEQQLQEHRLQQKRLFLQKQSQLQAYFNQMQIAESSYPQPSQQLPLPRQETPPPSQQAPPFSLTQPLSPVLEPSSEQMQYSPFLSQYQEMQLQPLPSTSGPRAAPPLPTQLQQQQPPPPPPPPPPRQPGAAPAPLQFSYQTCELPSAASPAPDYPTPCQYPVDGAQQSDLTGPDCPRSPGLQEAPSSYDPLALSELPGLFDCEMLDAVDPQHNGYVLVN

Structure (SMILES) | Ki (SIK2) [nM] | Ki (SIK1) [nM] | Ki (SIK3) [nM] | Ki (Abl) [nM] | Ki (Src) [nM] | Ki (EPHA2) [nM]
Cc1cccc(F)c1-c1cc(N[C@@H]2CCNC2)c2cc(N)ncc2c1 [Example 4, 7-(2-fluoro-6-methyl-pheny)-N5-[(3R)-pyrrolidin-3-yl]isoquinoline-3,5-diamine] | 0.0703 | 0.354 | 0.231 | 7.79 | 138 | 644
Cc1cccc(F)c1-c1cc(NC[C@@H]2CCNC2)c2cc(N)ncc2c1 [Example 6, 7-(2-fluoro-6-methyl-phenyl)-N5-[[(3R)-pyrrolidin-3-yl]methyl]isoquinoline-3,5-diamine] | 0.0517 | 0.31 | 0.57 | 0.298 | 145 | 49.5
Cc1cccc(Cl)c1-c1cc(NC2CCN(C)CC2)c2cc(N)ncc2c1 [Example 62, 7-(2-Chloro-6-methyl-phenyl)-N5-(1-methyl-4-piperidyl)isoquinoline-3,5-diamine] | 0.133 | 0.492 | 2.94 | 209 | 313 | 199
Cc1cccc(Cl)c1-c1cc(NC2CCNCC2)c2ccncc2c1 [Example 50, 7-(2-chloro-6-methyl-phenyl)-N-(4-piperidyl) isoquinolin-5-amine] | 0.983 | 1.27 | 3.23 | 66.1 | 98 | 18.9
Cc1cccc(F)c1-c1cc(C(=O)NC2CCNC2)c2cc(N)ncc2c1 (stereo not drawn) [Example 53, 3-amino-7-(2-fluoro-6-methyl-phenyl)-N-pyrrolidin-3-yl-isoquinoline-5-carboxamide] | 2770 | 12900 | > 100000 | 5530 | > 100000 | > 100000
Cc1cccc(F)c1-c1cc(NC(=O)C2CNC2)c2cc(N)ncc2c1 [Example 45, N-[3-amino-7-(2-fluoro-6-methyl-phenyl)-5-isoquinolyl] azetidine-3-carboxamide] | 5.48 | 17.8 | 35.4 | 84 | 883 | 924
Cc1cccc(F)c1-c1cc(NC(=O)C2CCNC2)c2cc(N)ncc2c1 (stereo not drawn) [Example 136, N-[3-amino-7-(2-fluoro-6-methyl-phenyl)-5-isoquinolyl] pyrrolidine-3-carboxamide] | 1.1 | 1.9 | 8.89 | 27.6 | 147 | 260
Cc1cccc(F)c1-c1cc(C(=O)NC2CCN(C)CC2)c2cc(N)ncc2c1 [Example 116, 3-Amino-7-(2-fluoro-6-methyl-phenyl)-N-(1-methyl-4-piperidyl)isoquinoline-5-carboxamide] | 4.93 | 8.53 | 13.8 | 16.7 | 80.2 | 47.4
CC(=O)NC1CCN(c2cc(-c3c(C)cccc3F)cc3cnc(N)cc23)CC1 [Example 114, N-[1-[3-amino-7-(2-fluoro-6-methyl-phenyl)-5-isoquinolyl]-4-piperidyl]acetamide] | 0.617 | 12 | 20.3 | 16.4 | 1600 | > 1000
Cc1cccc(F)c1-c1cc(NC2CCN(C)CC2)c2ccncc2n1 [Example 122, 2-(2-Fluoro-6-methyl-phenyl)-N-(1-methyl-4-piperidyl)-1,7-naphthyridin-4-amine] | 121 | 266 | 531 | > 10000 | > 10000 | > 10000
Cc1cccc(F)c1-c1cc(NC2CCN(C)CC2)c2nc(N)ncc2c1 [Example 132, 6-(2-fluoro-6-methyl-phenyl)-N8-(1-methyl-4-piperidyl)quinazoline-2,8-diamine] | 0.0399 | 0.317 | 0.45 | 8.63 | 46.3 | 58.8
Cc1cccc(F)c1-c1cc(OC2CCN(C)CC2)c2cc(N)ncc2c1 [Example 101, 7-(2-Fluoro-6-methyl-phenyl)-5-[(1-methyl-4-piperidyl)oxy]isoquinolin-3-amine] | 0.0539 | 0.66 | 0.915 | 59.1 | 134 | > 100
Cc1cccc(F)c1-c1cc(N2CCC[C@@H](N(C)C)C2)c2cc(N)ncc2c1 [Example 84, 5-[(3R)-3-(dimethylamino)-1-piperidyl]-7-(2-fluoro-6-methyl-phenyl)isoquinolin-3-amine] | 0.0819 | 0.409 | 2.23 | 49.4 | 274 | > 1000
Cc1cccc(F)c1-c1cc(O[C@@H]2CCNC2)c2cc(N)ncc2c1 [Example 48, 7-(2-fluoro-6-methyl-phenyl)-5-[(3R)-pyrrolidin-3-yl]oxy-isoquinolin-3-amine] | 0.089 | 0.338 | 0.298 | 22.6 | 320 | 227
Cc1cccc(F)c1-c1cc(NC[C@@H]2CCCN2)c2cc(N)ncc2c1 [Example 13, 7-(2-fluoro-6-methyl-phenyl)-N5-[[(2S)-pyrrolidin-2-yl]methyl]isoquinoline-3,5-diamine] | 0.191 | 0.501 | 1.01 | 3.29 | 24.3 | 144
Cc1cccc(F)c1-c1cc(NC[C@@H]2CCN(C)C2)c2cc(N)ncc2c1 [Example 74, 7-(2-fluoro-6-methyl-phenyl)-N5-[[(3S)-1-methylpyrrolidin-3-yl]methyl]isoquinoline-3,5-diamine] | 0.101 | 0.461 | 0.765 | 0.505 | > 1000 | 66.1
Cc1cccc(Cl)c1-c1cc(NC2CCN(C)CC2)c2nc(N)ncc2c1 [Example 129, 6-(2-chloro-6-methyl-phenyl)-N8-(1-methyl-4-piperidyl)quinazoline-2,8-diamine] | 0.0784 | 0.176 | 0.339 | 17.4 | 19.3 | 18.1
CNC1CN(c2cc(-c3c(C)cccc3F)cc3cnc(N)cc23)C1 [Example 29, 7-(2-Fluoro-6-methyl-phenyl)-5-[3-(methylamino)azetidin-1-yl]isoquinolin-3-amine] | 0.056 | 0.381 | 0.447 | 19.3 | 97.4 | 165
CNC[C@@H]1CCCN(c2cc(-c3c(C)cccc3F)cc3cnc(N)cc23)C1 [Example 22, 7-(2-fluoro-6-methyl-phenyl)-5-[(3S)-3-(methylamino-methyl)-1-piperidyl]isoquinolin-3-amine] | 0.563 | 1.67 | 13.6 | 46.6 | 304 | 227
Cc1cccc(F)c1-c1cc(NC[C@H]2CCCN(C)C2)c2cc(N)ncc2c1 [Example 77, 7-(2-fluoro-6-methyl-phenyl)-N5-[[(3R)-1-methyl-3-piperidyl]methyl] isoquinoline-3,5-diamine] | 0.302 | 1.13 | 3.74 | 26.5 | 197 | 80.1
Cc1cccc(F)c1-c1cc(N2CCC[C@@H](CN(C)C)C2)c2cc(N)ncc2c1 [Example 61, 5-[(3S)-3-[(dimethylamino)methyl]-1-piperidyl]-7-(2-fluoro-6-methyl-phenyl)isoquinolin-3-amine] | 1.08 | 3.23 | 39.5 | 27.7 | 226 | 199
Cc1cccc(F)c1-c1cc(N2CCC(O)CC2)c2cc(N)ncc2c1 [Example 104, 1-[3-Amino-7-(2-fluoro-6-methyl-phenyl)-5-isoquinolyl]piperidin-4-ol] | 4.37 | 43.4 | 176 | 45.4 | > 1000 | > 1000
Cc1cccc(F)c1-c1cc(NC[C@@H]2CCCCN2C)c2cc(N)ncc2c1 [Example 78, 7-(2-fluoro-6-methyl-phenyl)-N5-[[(2S)-1-methyl-2-piperidyl]methyl]isoq uinoline-3,5-diamine] | 0.0935 | 0.433 | 1.6 | 6.85 | 43.3 | 119
Cc1cccc(F)c1-c1cc(NC[C@@H]2CCCN2C)c2cc(N)ncc2c1 [Example 55, 7-(2-fluoro-6-methyl-phenyl)-N5-[[(2S)-1-methylpyrrolidin-2-yl]methyl] isoquinoline-3,5-diamine] | 0.22 | 0.954 | 3.85 | 9.11 | 57 | 183
